Experiments:
[1] = test system: intra-amniotic LPS-induced preterm labor and birth; test: Murine model of intra-amniotic LPS-induced preterm labor and birth; type: in vivo, mouse
Experimental: FIGS. 2A-2F. Nitazoxanide prevents preterm delivery and improves neonatal mortality in vivo. (FIG. 2A) Schematic illustration depicting the administration of nitazoxanide (marketed under the commercial name Alinia) and LPS in the murine model of preterm birth. (FIG. 2B) Gestational length of mice was obtained using video-monitoring until delivery (n=6-8 animals). (FIG. 2C) Neonatal mortality was determined by calculating the number of dead pups over total litter size (n=6-8 animals). […] No pups from LPS-injected dams survived beyond week 0 of birth. (FIG. 2E) MNRR1 transcript levels were measured in mouse decidual tissue (17.5 dpc). Actin was used as a housekeeping gene to normalize expression (n=4 animals for all except PBS+N, where n=3). (FIG. 2F) Equal amounts of whole placental lysates were separated on an SDS-PAGE gel and probed for MNRR1 levels. Actin was used as a loading control. Gel is representative of data obtained from 2 animals. Keyfor FIGS. 2B, 2C, and 2E: PBS, phosphate buffered saline injection; LPS, lipopolysaccharide injection; PBS+N, PBS injection with oral gavage of nitazoxanide; LPS+N, LPS injection with oral gavage of nitazoxanide. Significance: *, p<0.05; **, p<0.01.
Animal model of intra-amniotic LPS-induced preterm labor and birth: Nitazoxanide (Alinia®; ROMARK, Tampa, FL, USA) was dissolved in sterile injectable water. The nitazoxanide volume was mouse weight dependent (100 μL of nitazoxanide solution at 200 mg/kg was administered for every mouse weight of 10 g). […] Dams were anesthetized on 16.5 dpc by inhalation of 2-3% (Fluriso™ (Isoflurane, USP), Vetone Boise, ID, USA) and 1-2 L/min of oxygen in an induction chamber. Anesthesia was maintained with a mixture of 1.5-2% isoflurane and 1.5-2 L/min of oxygen. Dams were positioned on a heating pad and stabilized with adhesive tape. Fur removal from the abdomen and thorax was performed by applying Nair cream (Church & Dwight Co., Inc., Ewing, NJ, USA) to those areas. Body temperature was detected with a rectal probe (VisualSonics Inc., Toronto, Ontario, Canada) and maintained in the range of 37±1° C. Respiratory and heart rates were monitored by electrodes embedded in the heating pad. An ultrasound probe was fixed and mobilized with a mechanical holder, and the transducer was slowly moved toward the abdomen. […] Following injection, dams were monitored by using a video camera with infrared light (Sony) until delivery. Video monitoring allowed for determination of gestational length, which was calculated from the presence of the vaginal plug (0.5 dpc) until the observation of the first pup in the cage bedding. […] The rates of neonatal mortality at birth were calculated as the number of pups found dead among the total litter size. […]

[2] = single dose of 4 gm, adult humans; cited from earlier work
MELAS cybrid cells = test: Mitophagy markers in MELAS cybrid cells (immunoblot); type: cell-based, human; details: 10 μM, 48 h
Experimental: FIGS. 7A-7E: MNRR1 activation by tizoxanide enhances mtDNA biogenesis and mitophagy to shift heteroplasmy in MELAS cells. FIG. 7A: Oxygen consumption measured from MELAS cybrid cells treated with vehicle (DMSO) or tizoxanide (10 μM) for 48 h (n=4 biological replicates, error bars represent SE). FIG. 7B: Haelll restriction enzyme digestion of a PCR-amplified fragment of mtDNA harboring the m.3243A>G mutation from DW7 cells treated with vehicle (DMSO) or tizoxanide (10 μM) for 144 h. […] FIG. 7C: Genes identified using qPCR of MELAS cybrid cells stably overexpressing EV or MNRR1. FIG. 7D: MtDNA levels are shown relative to nuclear DNA (nDNA) (GAPDH) (n=5 biological replicates, error bars represent SE). FIG. 7E: Equal amounts of MELAS cybrid cell lysates, treated with vehicle (DMSO) or tizoxanide (10 μM) for 48 h, were separated on an SDS-PAGE gel and probed for PGC1a, PINK1, LC3 A/B, MNRR1, and Tubulin. […]
Immunoblotting: Immunoblotting was performed as described previously. […] The clear supernatants were transferred to new tubes and quantified using the Bradford reagent with BSA as standard (BioRad, Hercules. CA). […] For detection after immunoblotting, the SuperSignal™ West Pico PLUS substrate (ThermoFisher, Waltham, MA) was used to generate chemiluminescence signal, which was detected with X-Ray film (RadTech, Vassar, MI).

[3] = 200 mg/kg oral gavage, intra-amniotic LPS 16.5 dpc

Compound: CC(=O)Oc1ccccc1C(=O)Nc1ncc([N+](=O)[O-])s1 [nitazoxanide, Nitazoxanide]
- neonatal mortality at birth ([1]; 200 mg/kg oral gavage, LPS-injected dams, compared to controls): significantly reduced
- LPS-induced preterm birth (delivery <18.5 dpc) [1, 3]: preventing LPS-induced preterm birth (delivery <18.5 days post coitum (dpc)) in all pregnant dams
- gestational age [1, 3]: extended
- neonates surviving up to 3 weeks ([1]; neonates born to LPS-injected dams treated with nitazoxanide): almost one-half
- adverse effects [2]: did not result in any adverse effects

Compound: O=C(Nc1ncc([N+](=O)[O-])s1)c1ccccc1O [tizoxanide, Tizoxanide]
- mitophagy (PINK1, LC3A, LC3B, pSer-65 ubiquitin) (MELAS cybrid cells): Increased mitophagy

Source: US20250241901A1, “ACTIVATION OF MNRR1 / CHCHD2 AS A THERAPEUTIC TARGET FOR MITOCHONDRIA ASSOCIATED DISORDERS” (Wayne State University, priority 2024, published 2025)
